Data published in ChEMBL document CHEMBL3045536, “Prediction of antimalarial activity of some cyclic peroxy ketals using physico-chemical and topological indices” (2012).

tested on: Plasmodium falciparum; experiment: Antimalarial activity against Plasmodium falciparum; type: functional

SMILES	logIC50
COC1(c2ccc(SC)cc2)C=CC(C2CCCCC2)(C2CCCCC2)OC1 (centres undefined)	2.204
COC1(c2ccc(F)cc2)C=CC(C2CCCCC2)(C2CCCCC2)OC1 (centres undefined)	2.301
COC1(c2ccc(SC)cc2)C=CC(C2CCCCCC2)(C2CCCCCC2)OC1 (centres undefined)	1.892
COC1(c2ccc(OC(F)(F)F)cc2)C=CC(C2CCCCCC2)(C2CCCCCC2)OC1 (centres undefined)	1.785
COc1ccc(C2(OC)C=CC(C3CCCCC3)(C3CCCCC3)OC2)cc1 (centres undefined)	2.255
COC1(c2ccc(S(C)(=O)=O)cc2)C=CC(C2CCCCCC2)(C2CCCCCC2)OC1 (centres undefined)	1.491
COC1(c2ccc(F)cc2)C=CC(C2CCCCCC2)(C2CCCCCC2)OC1 (centres undefined)	1.929
COC1(c2ccc(Cl)cc2)C=CC(C2CCCCCC2)(C2CCCCCC2)OC1 (centres undefined)	1.763
COC1(c2ccccc2)C=CC(C2CCCCC2)(C2CCCCC2)OC1 (centres undefined)	2.447
COC1(c2ccc([N+](=O)[O-])cc2)C=CC(C2CCCCC2)(C2CCCCC2)OC1 (centres undefined)	1.663
COC1(c2ccccc2)C=CC(C)(C)OC1 (centres undefined)	3.041
COC1(c2ccc(S(C)(=O)=O)cc2)C=CC(C2CCCCC2)(C2CCCCC2)OC1 (centres undefined)	1.748
COC1(c2ccc(C(F)(F)F)cc2)C=CC(C2CCCCC2)(C2CCCCC2)OC1 (centres undefined)	2.146
COC1(c2ccc(Cl)cc2)C=CC(C2CCCCC2)(C2CCCCC2)OC1 (centres undefined)	2
COC1(c2ccccc2)C=CC(C2CCCC2)(C2CCCC2)OC1 (centres undefined)	2.279
COc1cc(C2(OC)C=CC(C3CCCCCC3)(C3CCCCCC3)OC2)cc(OC)c1OC (centres undefined)	2.079
CCc1ccc(C2(OC)C=CC(C3CCCCCC3)(C3CCCCCC3)OC2)cc1 (centres undefined)	2.255
COC1(c2ccccc2)C=CC(C2CCCCCC2)(C2CCCCCC2)OC1 (centres undefined)	2.342
COc1ccc(C2(OC)C=CC(C3CCCCCC3)(C3CCCCCC3)OC2)cc1 (centres undefined)	2.322
